Assay results: paper PMC3914206

Tests used:
Assay in all cases: KiNativ chemical proteomics profiling in HeLa and PC3 cell lysates
Assay type in all cases: binding
[1] = target: T1, selected panels of kinases in HeLa and PC3 cell lysates (Homo sapiens, UniProt O94921); settings: 10 uM; PFTAIRE1; peptide LVALkVIR; proteome PC3; labeling site Lys1
T1 construct: endogenous in cells; host or cells: HeLa and PC3 cell lysates

[2] = target: T2, selected panels of kinases in HeLa and PC3 cell lysates (Homo sapiens, UniProt P19525); settings: 10 uM, PKR, peptide DLk[…], labeling site Lys2
T2 construct: endogenous in cells; host or cells: HeLa and PC3 cell lysates

[3] = target: T3, selected panels of kinases in HeLa and PC3 cell lysates (Homo sapiens, UniProt P25098); settings: 10 uM; proteome HEL; peptide DLk[…]; labeling site Lys2
T3 construct: endogenous in cells; host or cells: HeLa and PC3 cell lysates

[4] = target: T4, selected panels of kinases in HeLa and PC3 cell lysates (Homo sapiens, UniProt P29323); settings: 10 uM; proteome PC3; peptide […]kIPIR; labeling site Activation Loop
T4 construct: endogenous in cells; host or cells: HeLa and PC3 cell lysates

[5] = target: T5, selected panels of kinases in HeLa and PC3 cell lysates (Homo sapiens, UniProt P30291); settings: 10 uM; Wee1; peptide […]k[…]; proteome HEL; labeling site Lys2
T5 construct: endogenous in cells; host or cells: HeLa and PC3 cell lysates

[6] = target: T6, selected panels of kinases in HeLa and PC3 cell lysates (Homo sapiens, UniProt Q16512); settings: 10 uM; PKN1; peptide GHFGk[…]; proteome HEL; labeling site Lys1
T6 construct: endogenous in cells; host or cells: HeLa and PC3 cell lysates

[7] = target: T7, selected panels of kinases in HeLa and PC3 cell lysates (Homo sapiens, UniProt Q16539); settings: 10 uM
T7 construct: endogenous in cells; host or cells: HeLa and PC3 cell lysates

[8] = target: T8, selected panels of kinases in HeLa and PC3 cell lysates (Homo sapiens, UniProt Q7KZI7); settings: 10 uM; proteome PC3; peptide EVAVk[…]; labeling site Lys1
T8 construct: endogenous in cells; host or cells: HeLa and PC3 cell lysates

[9] = target: T9, selected panels of kinases in HeLa and PC3 cell lysates (Homo sapiens, UniProt Q96S38); settings: 10 uM; RSKL1 domain1; peptide VLGVIDkVLLVMDTR; proteome HEL; labeling site Protein Kinase Domain
T9 construct: endogenous in cells; host or cells: HeLa and PC3 cell lysates

[10] = target: T10, selected panels of kinases in HeLa and PC3 cell lysates (Homo sapiens, UniProt Q99683); settings: 10 uM; proteome HEL; peptide DIk[…]; labeling site Lys2
T10 construct: endogenous in cells; host or cells: HeLa and PC3 cell lysates

[11] = target: T11, selected panels of kinases in HeLa and PC3 cell lysates (Homo sapiens, UniProt Q9BZL6); settings: 10 uM, PKD2, peptide DVAVkVIDK, labeling site Lys1
T11 construct: endogenous in cells; host or cells: HeLa and PC3 cell lysates
T11 sequence (Q9BZL6 1-878): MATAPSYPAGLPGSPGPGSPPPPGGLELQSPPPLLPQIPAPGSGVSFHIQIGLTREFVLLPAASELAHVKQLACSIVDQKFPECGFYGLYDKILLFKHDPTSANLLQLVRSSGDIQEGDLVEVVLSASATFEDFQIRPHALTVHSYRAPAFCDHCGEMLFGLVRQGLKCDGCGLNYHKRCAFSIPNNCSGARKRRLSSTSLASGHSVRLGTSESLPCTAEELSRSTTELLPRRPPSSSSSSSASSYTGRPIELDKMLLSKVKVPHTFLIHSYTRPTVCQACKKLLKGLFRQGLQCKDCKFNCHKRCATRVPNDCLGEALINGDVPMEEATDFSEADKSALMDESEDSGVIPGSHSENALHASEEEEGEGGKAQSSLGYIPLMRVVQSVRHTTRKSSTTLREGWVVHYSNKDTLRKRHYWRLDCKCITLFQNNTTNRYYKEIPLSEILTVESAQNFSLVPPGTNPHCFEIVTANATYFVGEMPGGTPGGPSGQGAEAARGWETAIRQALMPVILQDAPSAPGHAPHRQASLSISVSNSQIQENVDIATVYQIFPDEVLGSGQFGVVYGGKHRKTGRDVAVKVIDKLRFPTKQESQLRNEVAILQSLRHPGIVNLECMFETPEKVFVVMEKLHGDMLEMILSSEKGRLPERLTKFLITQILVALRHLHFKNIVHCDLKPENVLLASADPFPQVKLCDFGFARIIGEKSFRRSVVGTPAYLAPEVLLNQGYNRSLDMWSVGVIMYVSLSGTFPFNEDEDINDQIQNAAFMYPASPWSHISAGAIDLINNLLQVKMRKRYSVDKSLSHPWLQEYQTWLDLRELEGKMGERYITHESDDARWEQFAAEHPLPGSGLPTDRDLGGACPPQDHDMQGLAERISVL

[12] = target: T12, selected panels of kinases in HeLa and PC3 cell lysates (Homo sapiens, UniProt Q9NRH2); settings: 10 uM; SNRK; peptide DLkPENVVFFEK; proteome PC3; labeling site Lys2
T12 construct: endogenous in cells; host or cells: HeLa and PC3 cell lysates

[13] = target: T13, selected panels of kinases in HeLa and PC3 cell lysates (Homo sapiens, UniProt Q9NWZ3); settings: 10 uM, peptide DIk[…], labeling site Lys2
T13 construct: endogenous in cells; host or cells: HeLa and PC3 cell lysates
T13 sequence (Q9NWZ3 1-460): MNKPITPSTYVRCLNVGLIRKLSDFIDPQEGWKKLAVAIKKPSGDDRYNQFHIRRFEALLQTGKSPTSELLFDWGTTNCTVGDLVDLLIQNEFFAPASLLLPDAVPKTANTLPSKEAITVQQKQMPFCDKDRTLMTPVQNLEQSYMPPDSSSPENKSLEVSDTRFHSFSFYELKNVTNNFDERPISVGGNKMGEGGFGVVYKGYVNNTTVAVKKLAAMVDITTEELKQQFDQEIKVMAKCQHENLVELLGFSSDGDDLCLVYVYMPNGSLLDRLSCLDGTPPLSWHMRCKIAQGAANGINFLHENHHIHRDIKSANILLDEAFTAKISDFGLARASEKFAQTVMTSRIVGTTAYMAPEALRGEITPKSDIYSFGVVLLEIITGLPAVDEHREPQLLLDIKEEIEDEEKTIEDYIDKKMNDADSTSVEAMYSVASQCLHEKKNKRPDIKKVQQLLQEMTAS

[14] = target: T14, selected panels of kinases in HeLa and PC3 cell lysates (Homo sapiens, UniProt Q9UBF8); settings: 10 uM, PI4KB, peptide […]kDK, labeling site ATP
T14 construct: endogenous in cells; host or cells: HeLa and PC3 cell lysates

[15] = proteome HEL, peptide DLk[…], labeling site Lys2
[16] = proteome HEL, peptide QELNkTIWEVPER, labeling site Other
[17] = proteome PC3, peptide DLk[…], labeling site Lys2
[18] = proteome PC3, peptide QELNkTIWEVPER, labeling site Other

T7 sequence (Q16539 whole entry): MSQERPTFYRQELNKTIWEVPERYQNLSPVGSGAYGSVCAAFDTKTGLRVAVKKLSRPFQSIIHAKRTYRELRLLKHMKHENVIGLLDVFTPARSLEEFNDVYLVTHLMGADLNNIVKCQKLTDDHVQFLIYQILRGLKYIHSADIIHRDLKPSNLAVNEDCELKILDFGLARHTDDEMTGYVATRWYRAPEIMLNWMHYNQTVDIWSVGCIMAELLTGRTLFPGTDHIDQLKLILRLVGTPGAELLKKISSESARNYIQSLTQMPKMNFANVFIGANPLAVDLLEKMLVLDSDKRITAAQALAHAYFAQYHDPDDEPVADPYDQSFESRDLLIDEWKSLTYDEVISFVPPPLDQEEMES
T14 sequence (Q9UBF8 whole entry): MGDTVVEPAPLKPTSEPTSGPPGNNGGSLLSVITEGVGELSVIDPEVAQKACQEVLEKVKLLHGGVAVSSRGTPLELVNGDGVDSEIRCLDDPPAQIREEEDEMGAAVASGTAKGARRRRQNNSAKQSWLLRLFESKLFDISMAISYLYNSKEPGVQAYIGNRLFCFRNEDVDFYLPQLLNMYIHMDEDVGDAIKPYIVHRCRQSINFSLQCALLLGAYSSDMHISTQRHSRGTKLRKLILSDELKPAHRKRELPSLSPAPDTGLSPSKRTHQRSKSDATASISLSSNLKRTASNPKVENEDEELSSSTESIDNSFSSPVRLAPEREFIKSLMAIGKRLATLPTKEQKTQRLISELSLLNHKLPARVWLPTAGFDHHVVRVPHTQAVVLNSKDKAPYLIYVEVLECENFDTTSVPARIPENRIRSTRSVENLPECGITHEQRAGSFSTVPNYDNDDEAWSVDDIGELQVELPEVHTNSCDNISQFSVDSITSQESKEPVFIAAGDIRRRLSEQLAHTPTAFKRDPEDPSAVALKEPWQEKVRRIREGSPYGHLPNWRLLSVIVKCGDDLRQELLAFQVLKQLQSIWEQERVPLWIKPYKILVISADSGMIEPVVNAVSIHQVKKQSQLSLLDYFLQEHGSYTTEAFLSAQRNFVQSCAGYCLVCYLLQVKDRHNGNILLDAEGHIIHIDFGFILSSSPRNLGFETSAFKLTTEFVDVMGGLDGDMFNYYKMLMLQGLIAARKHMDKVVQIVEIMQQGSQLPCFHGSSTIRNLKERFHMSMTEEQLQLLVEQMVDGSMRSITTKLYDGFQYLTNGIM
T2 sequence (P19525 whole entry): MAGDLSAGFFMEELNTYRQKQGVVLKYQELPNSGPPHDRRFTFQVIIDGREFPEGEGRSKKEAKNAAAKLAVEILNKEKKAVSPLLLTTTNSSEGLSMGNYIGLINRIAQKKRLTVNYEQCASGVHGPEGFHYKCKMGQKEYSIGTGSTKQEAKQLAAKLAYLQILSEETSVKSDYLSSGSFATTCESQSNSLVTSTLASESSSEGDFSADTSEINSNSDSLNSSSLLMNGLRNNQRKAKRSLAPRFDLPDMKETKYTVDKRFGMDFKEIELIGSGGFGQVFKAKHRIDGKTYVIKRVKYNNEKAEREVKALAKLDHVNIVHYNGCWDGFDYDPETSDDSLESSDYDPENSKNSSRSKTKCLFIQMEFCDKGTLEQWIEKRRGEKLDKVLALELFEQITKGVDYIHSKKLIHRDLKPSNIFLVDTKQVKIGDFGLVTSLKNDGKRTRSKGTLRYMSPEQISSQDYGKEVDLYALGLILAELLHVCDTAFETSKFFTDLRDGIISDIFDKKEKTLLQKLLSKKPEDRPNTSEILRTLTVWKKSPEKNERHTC
T3 sequence (P25098 whole entry): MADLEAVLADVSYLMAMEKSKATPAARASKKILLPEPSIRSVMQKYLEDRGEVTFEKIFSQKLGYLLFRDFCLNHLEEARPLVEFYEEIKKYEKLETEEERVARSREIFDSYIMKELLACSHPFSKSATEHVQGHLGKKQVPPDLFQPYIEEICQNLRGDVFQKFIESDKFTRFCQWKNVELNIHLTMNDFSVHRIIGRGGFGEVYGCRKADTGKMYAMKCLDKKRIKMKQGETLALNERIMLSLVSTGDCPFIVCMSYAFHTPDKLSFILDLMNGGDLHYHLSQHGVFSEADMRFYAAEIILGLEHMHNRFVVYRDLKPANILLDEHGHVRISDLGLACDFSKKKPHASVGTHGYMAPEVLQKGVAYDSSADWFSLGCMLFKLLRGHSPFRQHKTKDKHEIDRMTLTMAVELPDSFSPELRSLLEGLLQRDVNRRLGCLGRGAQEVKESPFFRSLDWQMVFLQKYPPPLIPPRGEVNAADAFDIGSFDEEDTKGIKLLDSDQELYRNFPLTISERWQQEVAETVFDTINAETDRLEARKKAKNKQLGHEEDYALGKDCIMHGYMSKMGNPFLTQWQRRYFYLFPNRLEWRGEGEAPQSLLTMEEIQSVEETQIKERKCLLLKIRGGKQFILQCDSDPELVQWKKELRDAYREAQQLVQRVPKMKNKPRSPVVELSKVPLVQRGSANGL
T8 sequence (Q7KZI7 whole entry): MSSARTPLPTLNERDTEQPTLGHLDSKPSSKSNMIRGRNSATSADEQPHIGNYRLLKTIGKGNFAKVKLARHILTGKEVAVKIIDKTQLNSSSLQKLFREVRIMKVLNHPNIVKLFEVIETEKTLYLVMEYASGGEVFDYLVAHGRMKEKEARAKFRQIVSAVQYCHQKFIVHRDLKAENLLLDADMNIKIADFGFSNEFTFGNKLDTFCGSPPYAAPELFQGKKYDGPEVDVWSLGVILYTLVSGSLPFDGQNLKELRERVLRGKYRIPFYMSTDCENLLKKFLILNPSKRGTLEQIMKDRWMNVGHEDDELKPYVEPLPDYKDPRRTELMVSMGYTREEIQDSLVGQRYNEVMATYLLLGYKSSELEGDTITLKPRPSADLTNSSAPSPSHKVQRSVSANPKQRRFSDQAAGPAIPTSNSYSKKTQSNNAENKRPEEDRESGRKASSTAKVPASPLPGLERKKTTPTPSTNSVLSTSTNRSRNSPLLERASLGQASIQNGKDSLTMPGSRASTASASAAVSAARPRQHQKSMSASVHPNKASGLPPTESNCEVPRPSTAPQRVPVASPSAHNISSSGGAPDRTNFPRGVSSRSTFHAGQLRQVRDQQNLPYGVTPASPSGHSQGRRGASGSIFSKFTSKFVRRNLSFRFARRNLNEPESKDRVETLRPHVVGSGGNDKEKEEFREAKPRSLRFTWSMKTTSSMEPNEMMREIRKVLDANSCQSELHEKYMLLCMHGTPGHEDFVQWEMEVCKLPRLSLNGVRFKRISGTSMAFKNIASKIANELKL
T6 sequence (Q16512 whole entry): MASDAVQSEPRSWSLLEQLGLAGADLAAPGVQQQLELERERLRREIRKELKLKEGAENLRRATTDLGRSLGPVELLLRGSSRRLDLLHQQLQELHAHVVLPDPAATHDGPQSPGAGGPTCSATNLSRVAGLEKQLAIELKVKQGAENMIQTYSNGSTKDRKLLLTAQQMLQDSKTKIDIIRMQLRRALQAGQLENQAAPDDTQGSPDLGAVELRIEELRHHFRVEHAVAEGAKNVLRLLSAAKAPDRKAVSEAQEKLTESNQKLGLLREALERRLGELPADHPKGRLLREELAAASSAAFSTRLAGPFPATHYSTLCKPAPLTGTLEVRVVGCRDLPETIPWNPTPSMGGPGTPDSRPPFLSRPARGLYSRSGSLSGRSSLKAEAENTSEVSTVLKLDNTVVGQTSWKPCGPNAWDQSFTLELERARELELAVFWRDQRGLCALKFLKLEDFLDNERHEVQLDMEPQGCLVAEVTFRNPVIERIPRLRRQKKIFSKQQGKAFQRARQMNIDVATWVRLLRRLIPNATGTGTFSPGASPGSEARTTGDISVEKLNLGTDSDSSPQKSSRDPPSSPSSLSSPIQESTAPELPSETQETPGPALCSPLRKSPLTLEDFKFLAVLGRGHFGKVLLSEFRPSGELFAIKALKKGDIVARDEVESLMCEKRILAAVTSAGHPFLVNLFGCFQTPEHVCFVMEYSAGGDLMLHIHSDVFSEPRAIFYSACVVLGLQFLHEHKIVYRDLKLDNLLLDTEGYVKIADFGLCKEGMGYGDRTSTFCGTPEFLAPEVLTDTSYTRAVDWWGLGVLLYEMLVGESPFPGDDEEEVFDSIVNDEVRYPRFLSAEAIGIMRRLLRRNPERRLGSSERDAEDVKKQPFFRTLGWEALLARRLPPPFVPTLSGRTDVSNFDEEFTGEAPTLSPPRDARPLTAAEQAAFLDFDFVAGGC
T12 sequence (Q9NRH2 whole entry): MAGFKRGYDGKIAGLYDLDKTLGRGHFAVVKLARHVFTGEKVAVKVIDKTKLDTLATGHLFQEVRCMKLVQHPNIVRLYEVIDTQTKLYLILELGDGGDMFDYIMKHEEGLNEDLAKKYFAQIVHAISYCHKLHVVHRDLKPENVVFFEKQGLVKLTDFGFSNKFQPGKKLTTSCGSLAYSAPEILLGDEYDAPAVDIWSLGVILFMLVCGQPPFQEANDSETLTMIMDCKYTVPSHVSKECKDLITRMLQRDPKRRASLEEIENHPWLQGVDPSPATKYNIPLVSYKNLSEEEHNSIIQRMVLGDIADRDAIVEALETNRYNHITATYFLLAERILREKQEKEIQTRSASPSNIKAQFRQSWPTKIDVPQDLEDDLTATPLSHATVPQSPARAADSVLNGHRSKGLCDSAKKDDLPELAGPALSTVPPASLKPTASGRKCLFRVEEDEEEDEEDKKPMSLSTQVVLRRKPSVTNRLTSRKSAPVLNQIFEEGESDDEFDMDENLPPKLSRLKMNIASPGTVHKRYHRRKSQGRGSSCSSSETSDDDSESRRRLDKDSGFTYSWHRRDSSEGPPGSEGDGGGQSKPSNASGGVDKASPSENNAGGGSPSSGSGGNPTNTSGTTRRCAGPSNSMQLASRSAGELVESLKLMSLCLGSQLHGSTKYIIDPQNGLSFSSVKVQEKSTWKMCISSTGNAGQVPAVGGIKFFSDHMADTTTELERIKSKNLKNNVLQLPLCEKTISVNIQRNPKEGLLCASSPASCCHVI

CCOc1cc(C(=O)N2CCC(N3CCN(C)CC3)CC2)ccc1Nc1ncc2c(n1)N(C1CCCC1)c1ccccc1C(=O)N2C [Compound 26]
% Inhibition PFTAIRE1 [1]: -14.3%
% Inhibition PKR ([2]; proteome HEL): -0.3%
% Inhibition PKR ([2]; proteome PC3): -3.3%
% Inhibiton, BARK1 [3]: 10.9%
% Inhibiton, EphB2 [4]: -3.1%
% Inhibition Wee1 [5]: 2.9%
% Inhibition PKN1 [6]: 15.3%
% Inhibiton, p38a [7, 15]: -7.3%
% Inhibiton, p38a [7, 16]: 55%
% Inhibiton, p38a [7, 17]: 4.6%
% Inhibiton, p38a [7, 18]: -19%
% Inhibiton, MARK2 [8]: 16.8%
% Inhibition RSKL1 domain1 [9]: -6.2%
% Inhibiton, MAP3K5 [10]: -8.4%
% Inhibition PKD2 ([11]; proteome HEL): -14.3%
% Inhibition PKD2 ([11]; proteome PC3): 26.9%
% Inhibition SNRK [12]: -6.9%
% Inhibiton, IRAK4 ([13]; proteome HEL): -2.3%
% Inhibiton, IRAK4 ([13]; proteome PC3): 1.4%
% Inhibition PI4KB ([14]; proteome HEL): -1.9%
% Inhibition PI4KB ([14]; proteome PC3): 3.6%

COc1cc(C(=O)N2CCC(N3CCN(C)CC3)CC2)ccc1Nc1ncc2c(n1)N(C1CCCC1)c1ccccc1C(=O)N2C [Compound 25, 11-cyclopentyl-2-((2-methoxy-4-(4-(4-methylpiperazin-1-yl)piperidine-1-carbonyl)phenyl)amino)-5-methyl-5H-benzo[e]pyrimido[5,4-b][1,4]diazepin-6(11H)-one]
% Inhibition PFTAIRE1 [1]: -9.7%
% Inhibition PKR ([2]; proteome HEL): 6.1%
% Inhibition PKR ([2]; proteome PC3): -3.4%
% Inhibiton, BARK1 [3]: 12.0%
% Inhibiton, EphB2 [4]: -3.8%
% Inhibition Wee1 [5]: 11.1%
% Inhibition PKN1 [6]: -2.7%
% Inhibiton, p38a [7, 15]: 6.5%
% Inhibiton, p38a [7, 16]: 12.6%
% Inhibiton, p38a [7, 17]: 42.4%
% Inhibiton, p38a [7, 18]: -7.5%
% Inhibiton, MARK2 [8]: 1.3%
% Inhibition RSKL1 domain1 [9]: ~75.1%
% Inhibiton, MAP3K5 [10]: 17.3%
% Inhibition PKD2 ([11]; proteome HEL): -7.1%
% Inhibition PKD2 ([11]; proteome PC3): -2.6%
% Inhibition SNRK [12]: -15.7%
% Inhibiton, IRAK4 ([13]; proteome HEL): 13.4%
% Inhibiton, IRAK4 ([13]; proteome PC3): -7.4%
% Inhibition PI4KB ([14]; proteome HEL): -21.6%
% Inhibition PI4KB ([14]; proteome PC3): -6.1%
